# Where two headings read alike, the source gives them in different places.
# Columns and labels:
# [1] = system: patients with advanced cancers; parameters: method as in PMID 20215549; conditions: BID, continuous schedule; cited from earlier work
# [2] = plasma pharmacokinetics in patients (HPLC–MS/MS, non-compartmental analysis); type: in vivo, human; conditions: for AUC(0-t): read-out: AUC0-12h PD-0325901, mean (CV%); for Cmax: read-out: Cmax PD-0325901, mean (CV%)
# Protocol: For pharmacokinetic analyses, serial blood samples were obtained from all patients prior to treatment administration on day 1, and 1, 2, 3, 4, 6, 8, 12, 24, 72 and 144 h after the first dose. On day 1 of cycle 2, blood samples were drawn before and 1, 2, 3, 4, 6, 8, 12 and 24 h after administration. Plasma samples were assayed using a validated high-performance liquid chromatography– tandem mass spectrometry method (HPLC–MS/MS). Briefly, dacomitinib and PD-0325901 were extracted from plasma by protein precipitation with a mixture of acetonitrile/methanol (1:1 v/v). Compounds were chromatographically separated using a Waters Xbridge BEH Phenyl column (50 ×2.1-mm ID, 5-μm particle size), and detection was performed using an API4000 tandem mass spectrometer equipped with a turbo ion spray interface, operating in the positive ion mode. Transitions from m/z 480 to 329 and m/z 489 to 255 were monitored for the detection of dacomitinib and PD-0325901, respectively. Stable isotope-labelled internal standards were used for the quantification. The lower and upper limits of quantification were, respectively, 0.5 and 50 ng/ml for dacomitinib, and 5 and 500 ng/ml for PD-0325901. Pharmacokinetic parameters were calculated in R using an in-house-developed validated script for non-compartmental pharmacokinetic analyses (version 3.6.0).[9]
# [3] = system: patients with KRASm CRC, NSCLC or pancreatic cancer; type: in vivo; conditions: dacomitinib QD continuous, PD-0325901 BID 21 days on/7 days off
# From the text: . The starting doses were based on previous data from single-agent Phase 1 studies with both compounds, taking into account the potential for synergistic toxicity. […]. Dose-escalation decisions were based on safety evaluation of all evaluable patients, performed after completion of the first treatment cycle. Patients were considered evaluable for the dose-determining part of this study if at least one cycle of study treatment was completed, with the minimum safety evaluation conducted, and at least one administration of both drugs received, or if dose-limiting toxicity (DLT) had occurred during the first cycle. If one out of three patients experienced a DLT, the number of patients treated at that dose level was expanded to a maximum of six. […] Patients were continuing study treatment until disease progression, unacceptable toxicity or investigator/patient decision to discontinue.
# Safety was monitored throughout the treatment by physical examination, laboratory assessments, electrocardiography, ophthalmic evaluation and collection of adverse events. Adverse events were recorded according to the Common Terminology Criteria for Adverse Events version 4.0. All adverse events that were possible, probable or definite related to study drug were considered as study/treatment related. […]
# [4] = Dose-level 2: dacomitinib 15 mg QD + PD-0325901 3 mg BID, Cycle 1 Day 1, n = 6
# [5] = human, plasma, oral, 6 mg, All 6 mg doses, Cycle 1 Day 1, n = 14
# [6] = human, plasma, oral, 6 mg, All 6 mg doses, Cycle 2 Day 1 or last day of concomitant use, n = 6
# [7] = human, plasma, oral, Dose-level 1: dacomitinib 30 mg QD + PD-0325901 2 mg BID, Cycle 1 Day 1, n = 6
# [8] = human, plasma, oral, Dose-level 1: dacomitinib 30 mg QD + PD-0325901 2 mg BID, Cycle 2 Day 1, n = 6
# [9] = human, plasma, oral, Dose-level 2: dacomitinib 15 mg QD + PD-0325901 3 mg BID, Cycle 2 Day 1, n = 5
# [10] = human, plasma, oral, Dose-level 3: dacomitinib 15 mg QD + PD-0325901 4 mg BID, Cycle 1 Day 1, n = 2
# [11] = human, plasma, oral, Dose-level 3: dacomitinib 15 mg QD + PD-0325901 4 mg BID, Cycle 2 Day 1, n = 2
# [12] = human, plasma, oral, Dose-level 4: dacomitinib 15 mg QD + PD-0325901 5 mg BID, Cycle 1 Day 1, n = 3
# [13] = human, plasma, oral, Dose-level 4: dacomitinib 15 mg QD + PD-0325901 5 mg BID, Cycle 2 Day 1, n = 4
# [14] = human, plasma, oral, Dose-level 5: dacomitinib 15 mg QD + PD-0325901 6 mg BID, Cycle 1 Day 1, n = 8
# [15] = human, plasma, oral, Dose-level 5: dacomitinib 15 mg QD + PD-0325901 6 mg BID, Cycle 2 Day 1, n = 5
# [16] = human, plasma, oral, Dose-level 6: dacomitinib 30 mg (4/3) QD + PD-0325901 6 mg BID, Cycle 1 Day 1, n = 3
# [17] = human, plasma, oral, Dose-level 6: dacomitinib 30 mg (4/3) QD + PD-0325901 6 mg BID, last day of concomitant use of both drugs, n = 1
# [18] = human, plasma, oral, Dose-level 7: dacomitinib 30 mg (5/2) QD + PD-0325901 6 mg (5/2) BID, Cycle 1 Day 1, n = 3
# [19] = human, plasma, oral, Dose-level 7: dacomitinib 30 mg (5/2) QD + PD-0325901 6 mg (5/2) BID, last day of concomitant use of both drugs, n = 2
# [20] = human, plasma, oral, Dose-level 8: dacomitinib 30 mg (5/2) QD + PD-0325901 5 mg (5/2) BID, Cycle 1 Day 1, n = 4
# [21] = human, plasma, oral, Dose-level 8: dacomitinib 30 mg (5/2) QD + PD-0325901 5 mg (5/2) BID, last day of concomitant use of both drugs, n=2
# [22] = human, plasma, oral, Dose-level -1: dacomitinib 15 mg QD + PD-0325901 2 mg BID, Cycle 1 Day 1, n = 4
# [23] = human, plasma, oral, Dose-level -1: dacomitinib 15 mg QD + PD-0325901 2 mg BID, Cycle 2 Day 1, n = 3
# [24] = patients, combination treatment
smiles,measurement,setting,value
O=C(NOC[C@H](O)CO)c1ccc(F)c(F)c1Nc1ccc(I)cc1F [PD-0325901],formal single-agent RP2D,[1],10 mg
same,"tmax PD-0325901, mean","[2]; All 6 mg doses, Cycle 1 Day 1, n = 14",1.5 h
same,"tmax PD-0325901, mean","[2]; All 6 mg doses, Cycle 2 Day 1 or last day of concomitant use, n = 6",2.2 h
same,"tmax PD-0325901, mean","[2]; Dose-level 1: dacomitinib 30 mg QD + PD-0325901 2 mg BID, Cycle 1 Day 1, n = 6",1.2 h
same,"tmax PD-0325901, mean","[2]; Dose-level 1: dacomitinib 30 mg QD + PD-0325901 2 mg BID, Cycle 2 Day 1, n = 6",1.5 h
same,"AUC0-12h PD-0325901, mean (CV%)",[2]; [4],273 (15) ng*h/ml
same,"tmax PD-0325901, mean",[2]; [4],1.2 h
same,"tmax PD-0325901, mean","[2]; Dose-level 2: dacomitinib 15 mg QD + PD-0325901 3 mg BID, Cycle 2 Day 1, n = 5",2.2 h
same,"tmax PD-0325901, mean","[2]; Dose-level 4: dacomitinib 15 mg QD + PD-0325901 5 mg BID, Cycle 1 Day 1, n = 3",1.4 h
same,"tmax PD-0325901, mean","[2]; Dose-level 5: dacomitinib 15 mg QD + PD-0325901 6 mg BID, Cycle 1 Day 1, n = 8",1.4 h
same,"tmax PD-0325901, mean","[2]; Dose-level 5: dacomitinib 15 mg QD + PD-0325901 6 mg BID, Cycle 2 Day 1, n = 5",1.2 h
same,"tmax PD-0325901, mean","[2]; Dose-level 6: dacomitinib 30 mg (4/3) QD + PD-0325901 6 mg BID, Cycle 1 Day 1, n = 3",1.3 h
same,"tmax PD-0325901, mean","[2]; Dose-level 7: dacomitinib 30 mg (5/2) QD + PD-0325901 6 mg (5/2) BID, Cycle 1 Day 1, n = 3",1.3 h
same,"tmax PD-0325901, mean","[2]; Dose-level 8: dacomitinib 30 mg (5/2) QD + PD-0325901 5 mg (5/2) BID, Cycle 1 Day 1, n = 4",1.5 h
same,"tmax PD-0325901, mean","[2]; Dose-level -1: dacomitinib 15 mg QD + PD-0325901 2 mg BID, Cycle 1 Day 1, n = 4",1.3 h
same,"tmax PD-0325901, mean","[2]; Dose-level -1: dacomitinib 15 mg QD + PD-0325901 2 mg BID, Cycle 2 Day 1, n = 3",1.1 h
same,plasma concentration versus target level (16.5 ng/ml),"[2]; PD-0325901 doses of 5 and 6 mg, during the entire dose interval",exceeded the target level
same,increase of exposure with dose,[2]; across dose levels,approximately dose-proportionally
same,AUC(0-t),[2]; [5],706 ng·h/mL
same,Cmax,[2]; [5],227 ng/mL
same,AUC(0-t),[2]; [6],954 ng·h/mL
same,Cmax,[2]; [6],217 ng/mL
same,AUC(0-t),[2]; [7],188 ng·h/mL
same,Cmax,[2]; [7],68.7 ng/mL
same,AUC(0-t),[2]; [8],210 ng·h/mL
same,Cmax,[2]; [8],58.3 ng/mL
same,Cmax,"[2]; human, plasma, oral, Dose-level 2: dacomitinib 15 mg QD + PD-0325901 3 mg BID, Cycle 1 Day 1, n = 6",85 ng/mL
same,AUC(0-t),[2]; [9],279 ng·h/mL
same,Cmax,[2]; [9],73.8 ng/mL
same,AUC(0-t),[2]; [10],452 ng·h/mL
same,Cmax,[2]; [10],106 ng/mL
same,AUC(0-t),[2]; [11],376 ng·h/mL
same,Cmax,[2]; [11],125 ng/mL
same,AUC(0-t),[2]; [12],552 ng·h/mL
same,Cmax,[2]; [12],179 ng/mL
same,AUC(0-t),[2]; [13],638 ng·h/mL
same,Cmax,[2]; [13],229 ng/mL
same,AUC(0-t),[2]; [14],822 ng·h/mL
same,Cmax,[2]; [14],262 ng/mL
same,AUC(0-t),[2]; [15],855 ng·h/mL
same,Cmax,[2]; [15],242 ng/mL
same,AUC(0-t),[2]; [16],635 ng·h/mL
same,Cmax,[2]; [16],192 ng/mL
same,AUC(0-t),[2]; [17],1340 ng·h/mL
same,Cmax,[2]; [17],254 ng/mL
same,AUC(0-t),[2]; [18],635 ng·h/mL
same,Cmax,[2]; [18],192 ng/mL
same,AUC(0-t),[2]; [19],406 ng·h/mL
same,Cmax,[2]; [19],56 ng/mL
same,Tmax,"[2]; human, plasma, oral, Dose-level 7: dacomitinib 30 mg (5/2) QD + PD-0325901 6 mg (5/2) BID, last day of concomitant use of both drugs, n = 2, read-out: tmax PD-0325901, mean",4.5 h
same,AUC(0-t),[2]; [20],463 ng·h/mL
same,Cmax,[2]; [20],134 ng/mL
same,AUC(0-t),[2]; [21],667 ng·h/mL
same,Cmax,[2]; [21],155 ng/mL
same,AUC(0-t),[2]; [22],160 ng·h/mL
same,Cmax,[2]; [22],43.7 ng/mL
same,AUC(0-t),[2]; [23],145 ng·h/mL
same,Cmax,[2]; [23],47.7 ng/mL
same,half-life,"[2]; human, plasma, oral, patients, combination treatment, read-out: half-life, range",5 to 9.9 h
same,accumulation after multiple doses (AUC and Cmax),[2]; [24],minimal accumulation
same,"half-life, mean",[2]; [24],7.7 h
same,recommended Phase 2 dose (RP2D) / established maximum dose level in the combination with continuous dacomitinib dosing,[3],6 mg

# — article PMC7156736, “Phase 1 study of the pan-HER inhibitor dacomitinib plus the MEK1/2 inhibitor PD-0325901 in patients with KRAS-mutation-positive colorectal, non-small-cell lung and pancreatic cancer” (British Journal of Cancer, 2020)
